Test results published in US20140142094A1, “KINASE INHIBITORS” (ICAHN SCHOOL OF MEDICINE AT MOUNT SINAI, priority 2011, published 2014).
pIC50: −log10 of the molar value. Blank lines part the entries; values can stand above or below the compound they belong to.

Key:
[1] = test system: K562 (chronic myelogenous leukemia; leukemia cell line +ve for Bcr-Abl); experiment: Cytotoxicity on K562 cancer cell line; type: cell-based; details: Homo sapiens; K562 cells, 96 h treatment
Protocol: (§1) The effect of the compounds described herein on tumor cells was determined by the assay described by Latham et al., Oncogene 12:827-837 (1996). Tumor cells K562 (chronic myelogenous leukemia; leukemia cell line +ve for Bcr-Abl) or DU145 (prostate cancer) were plated in 12-well dishes at a cell density of 2.5×10^4 cells per well. The plated cells were treated 24h. later with a DMSO solution of a compound as described herein at multiple concentrations ranging from 0.01 μM to 100 μM. The plates were examined 96 h. later under an inverted microscope, Olympus CK-2 using a 10× objective, and compound activity was noted by physical observation. When necessary, the total number of viable cells was determined by trypsinizing the wells and counting the number of viable cells, as determined by trypan blue exclusion, using a hemacytometer.

DU145 (prostate cancer) = experiment: Cytotoxicity on DU145 cancer cell line; type: cell-based; details: Homo sapiens, DU-145; DU145 cells, 96 h treatment
Protocol: as §1

SMILES: CN1CCN(c2ccc(Nc3ncc4c(n3)S/C(=C/c3ccc(F)cc3)C(=O)N4)cc2)CC1 [Compound 1a, (E)-7-(4-Fluorobenzylidene)-2-(4-(4-methylpiperazin-1-yl)phenylamino)-5H-pyrimido[4,5-b][1,4]thiazin-6(7H)-one]
pIC50 [1]: 5.00 to 6.00
pIC50 (DU145 (prostate cancer)): 5.00 to 6.00

SMILES: CC(=O)Oc1ccc(/C=C2/Sc3nc(Nc4ccc(N5CCN(C)CC5)cc4)ncc3NC2=O)cc1 [Compound 1c, (E)-4-((2-(4-(4-Methylpiperazin-1-yl)phenylamino)-6-oxo-5H-pyrimido[4,5-b][1,4]thiazin-7(6H)-ylidene)methyl)phenyl acetate]
pIC50 [1]: 5.00 to 6.00
pIC50 (DU145 (prostate cancer)): 5.00 to 6.00

SMILES: COc1ccc(/C=C2/Sc3nc(N(C(C)=O)c4ccc(N5CCN(C)CC5)cc4)ncc3NC2=O)cc1[N+](=O)[O-] [Compound 1d, (E)-N-(7-(4-methoxy-3-nitrobenzylidene)-6-oxo-6,7-dihydro-5H-pyrimido[4,5-b][1,4]thiazin-2-yl)-N-(4-(4-methylpiperazin-1-yl)phenyl)acetamide]
pIC50 [1]: 5.00 to 6.00
pIC50 (DU145 (prostate cancer)): 5.00 to 6.00

SMILES: O=C1Nc2cnc(N3CCN(c4ccccn4)CC3)nc2S/C1=C/c1ccc([N+](=O)[O-])cc1 [Compound 1e, (E)-7-(4-Nitrobenzylidene)-2-(4-(pyridin-2-yl)piperazin-1-yl)-5H-pyrimido[4,5-b][1,4]thiazin-6(7H)-one]
pIC50 [1]: 4.60 to 5.00
pIC50 (DU145 (prostate cancer)): 5.00 to 6.00

SMILES: CC(=O)N1CCN(c2ccc(Oc3ncc4c(n3)S/C(=C/c3ccc([N+](=O)[O-])cc3)C(=O)N4)cc2)CC1 [Compound 1f, (E)-2-(4-(4-Acetylpiperazin-1-yl)phenoxy)-7-(4-nitrobenzylidene)-5H-pyrimido[4,5-b][1,4]thiazin-6(7H)-one]
pIC50 [1]: 4.60 to 5.00
pIC50 (DU145 (prostate cancer)): 4.60 to 5.00

SMILES: CC(=O)N(c1ccc(N2CCN(C)CC2)cc1)c1ncc2c(n1)S/C(=C/c1cn(C(C)=O)c3ccccc13)C(=O)N2 [Compound 1g, (E)-N-(7-((1-Acetyl-1H-indol-3-yl)methylene)-6-oxo-6,7-dihydro-5H-pyrimido[4,5-b][1,4]thiazin-2-yl)-N-(4-(4-methylpiperazin-1-yl)phenyl)acetamide]
pIC50 [1]: 5.00 to 6.00
pIC50 (DU145 (prostate cancer)): 5.00 to 6.00

SMILES: CN1CCN(c2ccc(Nc3ncc4c(n3)S/C(=C/c3ccc(N)cc3)C(=O)N4)cc2)CC1 [Compound 1h, (E)-7-(4-Aminobenzlidene)-2-(4-(4-methylpiperazin-1-yl)phenylamino)-5H-pyrimido[4,5-b][1,4]thiazin-6(7H)-one]
pIC50 [1]: > 6.00
pIC50 (DU145 (prostate cancer)): 5.00 to 6.00

SMILES: CC(=O)Oc1ccc(/C=C2/Sc3nc(N4CCN(c5ccccn5)CC4)ncc3NC2=O)cc1 [Compound 1i, (E)-4-((6-Oxo-2-(4-(pyridin-2-yl)piperazin-1-yl)-5H-pyrimido[4,5-b][1,4]thiazin-7(6H)-ylidene)methyl)phenyl acetate]
pIC50 [1]: 5.00 to 6.00
pIC50 (DU145 (prostate cancer)): 5.00 to 6.00

SMILES: O=C1Nc2cnc(N3CCN(c4ncccn4)CC3)nc2S/C1=C/c1ccc([N+](=O)[O-])cc1 [Compound 1j, (E)-7-(4-Nitrobenzylidene)-2-(4-(pyrimidin-2-yl)piperazin-1-yl)-5H-pyrimido[4,5-b][1,4]thiazin-6(7H)-one]
pIC50 [1]: 4.00 to 4.30
pIC50 (DU145 (prostate cancer)): 4.30 to 4.60

melting point: 302 to 304 °C
SMILES: O=C1Nc2cnc(Nc3ccc(N4CCOCC4)cc3)nc2S/C1=C/c1ccc([N+](=O)[O-])cc1 [Compound 1k, (E)-2-((4-Morpholinophenyl)amino)-7-(4-nitrobenzylidene)-5H-pyrimido[4,5-b][1,4]thiazin-6(7H)-one]
pIC50 [1]: 4.00 to 4.30
pIC50 (DU145 (prostate cancer)): 4.00 to 4.30

melting point: 326 to 330 °C
SMILES: CC(=O)N(c1ccc(N2CCN(C)CC2)cc1)c1ncc2c(n1)S/C(=C/c1ccc(C(=O)O)cc1)C(=O)N2 [Compound 1l, (E)-4-((2-(N-(4-(4-Methylpiperazin-1-yl)phenyl)acetamido)-6-oxo-5H-pyrimido[4,5-b][1,4]thiazin-7(6H)-ylidene)methyl)benzoic acid]
pIC50 [1]: 4.00 to 4.30
pIC50 (DU145 (prostate cancer)): 4.00 to 4.30

SMILES: CC1CCN(c2ccc(Nc3ncc4c(n3)S/C(=C/c3ccc([N+](=O)[O-])cc3)C(=O)N4)cc2)CC1 [Compound 1m, (E)-2-((4-(4-Methylpiperidin-1-yl)phenyl)amino)-7-(4-nitrobenzylidene)-5H-pyrimido[4,5-b][1,4]thiazin-6(7H)-one]
pIC50 [1]: 5.00 to 6.00
pIC50 (DU145 (prostate cancer)): 5.00 to 6.00

melting point: 274 to 276 °C
SMILES: CN1CCN(c2ccc(Nc3ncc4c(n3)S/C(=C/c3ccc(C#N)cc3)C(=O)N4)cc2)CC1 [Compound 1n, (E)-4-((2-((4-(4-Methylpiperazin-1-yl)phenyl)amino)-6-oxo-5H-pyrimido[4,5-b][1,4]thiazin-7(6H)-ylidene)methyl)benzonitrile]
pIC50 [1]: > 6.00
pIC50 (DU145 (prostate cancer)): > 6.00

melting point: 238 to 240 °C
SMILES: CN1CCN(c2ccc(Nc3ncc4c(n3)S/C(=C/c3ccc(OCc5ccccc5)cc3)C(=O)N4)cc2)CC1 [Compound 1o, (E)-7-(4-(Benzyloxy)benzylidene)-2-((4-(4-methylpiperazin-1-yl)pheny)amino)-5H-pyrimido[4,5-b][1,4]thiazin-6(7H)-one]
pIC50 [1]: > 6.00
pIC50 (DU145 (prostate cancer)): > 6.00

melting point: 294 to 298 °C
SMILES: CN1CCN(c2ccc(Nc3ncc4c(n3)S/C(=C/c3ccc(C(N)=O)cc3)C(=O)N4)cc2)CC1 [Compound 1p, (E)-4-((2-((4-(4-Methylpiperazin-1-yl)phenyl)amino)-6-oxo-5H-pyrimido[4,5-b][1,4]thiazin-7(6H)-ylidene)methyl)benzamide]
pIC50 [1]: 5.00 to 6.00
pIC50 (DU145 (prostate cancer)): 5.00 to 6.00

melting point: 312 to 314 °C
SMILES: CN1CCN(c2ccc(Nc3ncc4c(n3)S/C(=C/c3ccc(O)cc3)C(=O)N4)cc2)CC1 [Compound 1q, (E)-7-(4-Hydroxybenzylidene)-2-((4-(4-methylpiperazin-1-yl)phenyl)amino)-5H-pyrimido[4,5-b][1,4]thiazin-6(7H)-one]
pIC50 [1]: > 6.00
pIC50 (DU145 (prostate cancer)): > 6.00

SMILES: CN1CCN(c2ccc(Nc3ncc4c(n3)SCC(=O)N4)cc2)CC1 [Compound 4a, 2-(4-(4-methylpiperazin-1-yl)phenylamino)-5H-pyrimido[4,5-b][1,4]thiazin-6(7H)-one]
pIC50 [1]: 5.00 to 6.00
pIC50 (DU145 (prostate cancer)): 4.60 to 5.00

melting point: 242 to 244 °C
SMILES: O=C1CSc2nc(SCc3c(Cl)cccc3Cl)ncc2N1 [Compound 4d, 2-(2,6-Dichlorobenzylthio)-5H-pyrimido[4,5-b][1,4]thiazin-6(7H)-one]
pIC50 [1]: 4.30 to 4.60
pIC50 (DU145 (prostate cancer)): 4.30 to 4.60
